Experimental data taken from US10188659B2, “IGF-1R signaling pathway inhibitors useful in the treatment of neurodegenerative diseases” (YISSUM RESEARCH DEVELOPMENT COMPANY OF THE HEBREW …, priority 2013, dated 2019).
Where “and” joins values, the source holds several entries; their conditions need not be identical. Identical values can stand only once.

What was measured:
Aβ worms (strain CL2006) = test: Paralysis assay in Aβ worms; format: in vivo, Caenorhabditis elegans
[1] = tested on: DAF-16::GFP expressing worms (strain TJ356); test: DAF-16 localization assay; format: in vivo, Caenorhabditis elegans; details: 300 μM, 6 hours
Experimental: Synchronized TJ356 worms were grown on the EV control bacteria. At the indicated ages (days 1 of adulthood), 25 worms were transferred onto daf-2 RNAi bacteria for the indicated time (6 h). […] (Molecular Probes), Invitrogen, Carlsbad, Calif., USA]. DAPI and GFP signals were visualized using a fluorescent microscope (Leica DM6000 B; Leica, Wetzlar, Germany). […] The worms were let hatched and develop on control bacteria harboring an empty vector (EV) (FIG. 1A) or on daf-2 RNAi bacteria (FIG. 1B). […] The worms were then fixed and stained with DAPI. […] Paralyzed worms were scored daily. […] The worms were placed on plates seeded with EV bacteria and exposed to 35° C. for 15 hours and survival rates were scored by counting the surviving worms. The results of a representative experiment (three repeats were performed) is presented on FIG. 3.

CF512 worms [2] = test: Heat stress assay; format: in vivo, Caenorhabditis elegans; details: for stress resistance (survival): 300 μM, 3 hours at day 1, 35° C. for 15 hours
IRS1 and IRS2 = test: IRS1/IRS2 Ser-phosphorylation and degradation, Western blot in A375 cells
Aβ [3] = test: Aβ immunofluorescence in worms; format: in vivo, Caenorhabditis elegans; details: immuno-fluorescence
polyQ40-YFP = polyQ40-YFP aggregation (WB, high-speed pellets, native gel); format: in vivo, Caenorhabditis elegans
CF512 worms [4] = test: UV stress assay; format: in vivo, Caenorhabditis elegans; details: sub-lethal UV dose
[5] = tested on: hsp-70 promoter (hsp-70p::GFP); test: hsp-70 promoter GFP induction after heat, fluorescent microscopy; format: in vivo, Caenorhabditis elegans; details: 600 μM, heat stress 33° C., 3 h
AKT = test: IGF1-induced AKT phosphorylation, Western blot in A375 cells; format: cell-based, human
polyQ35-YFP worms = test: Motility assay (crawling speed); format: in vivo, Caenorhabditis elegans; details: 600 μM daily day 1 to 11
polyQ40-YFP worms = test: polyQ40-YFP foci count; format: in vivo, Caenorhabditis elegans
[6] = tested on: hsp-16.2 promoter (strain CL2070); test: hsp-16.2 promoter GFP induction after heat, Western blot; format: in vivo, Caenorhabditis elegans; details: CL2070 worms, 33° C. three hours
Aβ [7] = test: Aβ aggregation, Western blot after high-speed centrifugation; format: in vivo, Caenorhabditis elegans; details: CL2006 worms, WB with 6E10 antibody
[8] = tested on: DAF-16, HSF-1 and SKN-1 target genes; test: Real-time quantitative PCR of IIS target genes; format: in vivo, Caenorhabditis elegans; details: CF512 worms, 600 μM, 3 hours days 1 and 2, vs control

Oc1cc(CNC(=S)/C=C/c2cc(O)c(O)c(Br)c2)cc(O)c1O [Compound 29]
paralysis rates (Aβ worms (strain CL2006); 300 μM, soaked 3 hours days 1 and 2, then daily 25 μl): increased in reduced rates compared to the untreated control
nuclear localization of DAF-16 (co-localization of DAPI and GFP signals) [1]: confirmed the nuclear localization of DAF-16
stress resistance (survival) (CF512 worms [2]): elevate stress resistance of CF512 worms

Oc1cc(CNC(=S)/C=C/c2ccc(O)c(O)c2Br)cc(O)c1O [Compound 39]
rate of paralyzed worms at day 12 (Aβ worms (strain CL2006); 600 μM compound (or daf-2 RNAi throughout), day 12 of adulthood): 29%
IRS1 and IRS2 protein levels (IRS1 and IRS2; long exposure (19 hours)): elimination of IRS1 and IRS2
phosphorylation of IRS1 and IRS2 on serine residues (IRS1 and IRS2; short exposure (4 hours)): massive phosphorylation on serine residues
Aβ amounts and distribution (Aβ [3]): enhanced the amount of Aβ and led to its accumulation in the central part of the animal's body
polyQ40-YFP aggregation, YFP fluorescence on native gel (polyQ40-YFP; 1% native gel): did not exhibit elevated rates of polyQ40-YFP aggregation
aggregated polyQ40-YFP in high-speed pellets (polyQ40-YFP; WB after high-speed centrifugation): no increase was seen
SDS resistant polyQ40-YFP aggregates, whole worm homogenates (polyQ40-YFP; WB, GFP antibody, day 2): no such material could be detected
mean survival after UV radiation (days±SEM) (CF512 worms [4]): 8.76 ± 0.21 days
hsp-70 promoter driven GFP fluorescence [5]: elevated GFP fluorescence levels
AKT phosphorylation, kinetic experiment (AKT): partial inhibition of AKT phosphorylation
IGF1-induced activation of AKT (phosphorylation on threonine 308 and serine 473) (AKT; A375 cells, short and long exposures): abolished the IGF1-induced activation of AKT
average crawling speed at day 11 relative to day 1 of adulthood (polyQ35-YFP worms): 32.9%
average number of polyQ40-YFP foci/worm (polyQ40-YFP worms): 52.78 foci/worm
hsp-16.2 promoter driven GFP level ([6]; 150 μM): no detectable effect
hsp-16.2 promoter driven GFP level ([6]; 300 μM): moderate effect
hsp-16.2 promoter driven GFP level ([6]; 600 μM): remarkably increased the induction of GFP
hsp-16.2 promoter driven GFP level ([6]; 900 μM): lower effect than that of 600 μM
high molecular-weight Aβ aggregates (Aβ [7]): elevated amount of high molecular-weight Aβ aggregates
stress resistance (survival) (CF512 worms [2]): elevate stress resistance of CF512 worms
raise of survival rates compared to the untreated population (CF512 worms [2]; 15 hours at 35° C.): 33%
survival rate after heat stress (CF512 worms [2]; 15 hours at 35° C.): 72% and 71.7%
average increase of expression of DAF-16 and SKN-1 target genes [8]: 19-37%
elevation of expression level of hsp-70 [8]: approximately 170%
